Literature values, collected in patent EP1608381B1, “THERAPEUTIC AND CONSMETIC APPLICATION FOR A COMPOSITION CONTAINING LYCOPENE” (Touche, Marie-José, priority 2002, dated 2003).

What was measured:
[1] = relative to Bétacarotène

For CC(C)=CCC/C(C)=C/C=C/C(C)=C/C=C/C(C)=C/C=C/C=C(C)/C=C/C=C(C)/C=C/C=C(\C)CCC=C(C)C [lycopène, psi-psi-carotène], the “effet sur les radicaux libres, fois plus que le Bétacarotène” value [1] is given as 2 fois.

In the case of CCCCOC(=O)c1ccc(N)cc1 [Butoforme, p-aminobenzoate de n- butyle], the “solubilité dans le chlorure de méthylène” value (chlorure de méthylène) is listed as “facilement soluble”, the “solubilité dans l'eau froide” value (eau froide) is listed as “pratiquement insoluble” and the “soluble dans p. d'alcool à 50°” value (parts of solvent, alcool à 50°) is listed as 10 p. The “soluble dans p. d'huile d'olive” value (parts of solvent, huile d'olive) was 12,5 p and the “soluble dans p de vaseline” value (parts of solvent, vaseline) was 200 p.

For C=CCc1ccc(O)c(OC)c1 [EUGENOL, eugénol], the “solubilité dans l'eau” value (eau) is listed as “insoluble” and the “solubilité dans l'éthanol” value (éthanol) is listed as “soluble”.
